Measured values reported in article PMC6981064 (Biochemical and biophysical research communications, 2019).

Key:
[1] = target: T1, glutamate-oxaloacetate transaminase 1 (GOT1) (Homo sapiens, UniProt P17174); test: MDH1-coupled enzyme assay, […] h pre-incubation; type: biochemical
[2] = target: T1, glutamate-oxaloacetate transaminase 1 (GOT1); test: MDH1-coupled enzyme assay, percent inhibition; type: biochemical

T1 sequence (P17174 2-413): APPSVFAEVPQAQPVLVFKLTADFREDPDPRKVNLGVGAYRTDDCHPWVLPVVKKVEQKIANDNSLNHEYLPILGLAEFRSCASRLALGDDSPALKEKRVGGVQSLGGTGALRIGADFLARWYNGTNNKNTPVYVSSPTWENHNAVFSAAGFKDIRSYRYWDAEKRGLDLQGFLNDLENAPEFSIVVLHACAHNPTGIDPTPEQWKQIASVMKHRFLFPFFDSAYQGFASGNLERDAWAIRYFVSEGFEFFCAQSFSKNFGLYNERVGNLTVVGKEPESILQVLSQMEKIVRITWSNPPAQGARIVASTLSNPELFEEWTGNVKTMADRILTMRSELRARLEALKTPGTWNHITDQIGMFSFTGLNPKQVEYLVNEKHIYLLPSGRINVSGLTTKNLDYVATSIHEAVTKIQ

Structure (SMILES)	IC50 [1] [µM]	MDH1-coupled enzyme assay, percent inhibition [2]
N[C@H]1Cc2ccccc2N(O)C1=O [PF-04859989]	8	–
NOCC(=O)O [amino-oxyacetate]	–	The pan-transaminase inhibitor amino-oxyacetate (AOA) was used as a positive control
